The text below walks through data of patent US7795257B2, “Organic compounds” (Novartis AG, priority 2005, dated 2010).

Where a name gives a salt, the structure may show the parent alone.

For the assay, the target named is T1, recombinant GST-GK (Homo sapiens, UniProt P35557).
T1 sequence (P35557 1-465): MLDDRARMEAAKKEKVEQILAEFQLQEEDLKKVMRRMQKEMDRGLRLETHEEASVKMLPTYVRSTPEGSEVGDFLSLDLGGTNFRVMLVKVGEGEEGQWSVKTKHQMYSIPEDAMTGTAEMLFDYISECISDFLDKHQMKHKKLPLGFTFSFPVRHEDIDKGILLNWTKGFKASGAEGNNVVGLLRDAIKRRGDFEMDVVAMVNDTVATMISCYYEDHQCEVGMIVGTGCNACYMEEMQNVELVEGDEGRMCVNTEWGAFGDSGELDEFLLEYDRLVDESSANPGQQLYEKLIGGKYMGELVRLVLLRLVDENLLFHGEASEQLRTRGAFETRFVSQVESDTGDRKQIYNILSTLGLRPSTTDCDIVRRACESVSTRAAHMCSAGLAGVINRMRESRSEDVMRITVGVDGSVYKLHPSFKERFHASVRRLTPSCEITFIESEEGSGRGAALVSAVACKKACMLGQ
The experiment in a line: primary enzyme assay: glucokinase activation in vitro (thio-NADH coupled assay). As to conditions: concentration of compound that produces a 50% increase in the activity of GK vs DMSO control; 10 mM glucose, 25° C. It counts as biochemical. An excerpt:
For example, the glucokinase activation in vitro may be determined by measuring the activation of recombinant GST-GK by a compound of the present invention in the absence or the presence of GKRP, a 68,000 Da protein inhibitor of GK. In these assays, formation of glucose-6-phosphate is coupled directly to the formation of thio-NADH. GST-GK catalyzes the reaction of glucose and Mg-ATP to produce glucose-6-phosphate and ADP. Glucose-6-phosphate dehydrogenase (G6PDH) reduces thionicotinamide (thio-NAD) to thio-NADH. The assay measures the formation of thio-NADH at […].
The basic GK assay components are as follows: 25 mM HEPES (pH 7.1), 25 mM KCl, 2.5 mM MgCl2, 1 mM ATP (Sigma A-5394), 1 mM DTT, 1 mM thio-NAD (Sigma T-7375), 80 units/mL G6PDH (Sigma G-5885), 10 mM glucose and 110 nM GST-GK. For assessing reversal of GK inhibition by GKRP, 20 μM Fructose-6-phosphate (F-6-P) and 370 nM recombinant GKRP are added to these assay components. Fructose-1-phosphate (F-1-P) at 1 μM is used as a control in the GK/GKRP assay. F-1-P reverses inhibition of GST-GK by GKRP.
The assay is done in standard, 96-well, round-bottom plates (Corning) and the total assay volume is 25 μL. Test compounds are serially diluted into 100% DMSO and 0.5 μL of diluted compound in 100% DMSO is added to the assay plate. Assay reagents (24.5 μL) are added using a Zymark robotic platform. Buffer, containing HEPES, MgCl2, KCl, thio-NAD, G6PDH, glucose and GST-GK, are added (5 μL) using the Zymark 8-channel hand pipet. For the GK/GKRP assay, GKRP and F-6-P are also included. The reaction is then initiated by adding 19.5 μL of buffer containing HEPES, MgCl2, KCl, DTT and ATP using the Zymark Reagent Addition Station/Reagent Addition Module. The plates are read kinetically over 10 min at 25° C. using a SpectraMax Plus microplate spectrophotometer (Molecular Devices, Sunnyvale, Calif.) to monitor the increase in optical density at 405 nm. The GK activity in wells containing test compounds is compared with activity in DMSO control wells. The concentration of compound that produces a 50% increase in the activity of GK is calculated and expressed as EC50.
For the compound `COc1ccc2nc(NC(=O)C(CC3CCCC3)c3ccc(S(=O)(=O)N4CCC(C(=O)O)CC4)cc3)sc2n1` (stereo not shown) [Example 3, 1-{4-[2-Cyclopentyl-1-(5-methoxy-thiazolo[5,4-b]pyridin-2-ylcarbamoyl)-ethyl]-benzenesulfonyl}-piperidine-4-carboxylic acid], the EC50 amounted to 7100 nM.

Regarding `CN1CCN(S(=O)(=O)c2ccc(C(CC3CCCC3)C(=O)Nc3ccc(C(=O)O)cn3)cc2)CC1` (stereo not shown) [Example 4-23, 6-{3-Cyclopentyl-2-[4-(4-methyl-piperazine-1-sulfonyl)-phenyl]-propionylamino}-nicotinic acid], the EC50 stood at 1400 nM.

On to `CN1CCN(S(=O)(=O)c2ccc(C(CC3CCCC3)C(=O)Nc3nc4ccc(-c5ccccc5)nc4s3)cc2)CC1` (stereo not shown) [Example 4-44, 3-Cyclopentyl-2-[4-(4-methyl-piperazine-1-sulfonyl)-phenyl]-N-(5-phenyl-thiazolo[5,4-b]pyridin-2-yl)-propionamide], for which the EC50 was determined as 260 nM.

As for `CN1CCN(S(=O)(=O)c2ccc(C(CC3CCCC3)C(=O)Nc3nccc4ccccc34)cc2)CC1` (stereo not shown) [Example 1, 3-Cyclopentyl-N-isoquinolin-1-yl-2-[4-(4-methyl-piperazine-1-sulfonyl)-phenyl]-propionamide hydrochloride], the EC50 was found to be 50000 nM.

Regarding `CN1CCN(S(=O)(=O)c2ccc(C(CC3CCCC3)C(=O)Nc3nccc4ccccc34)cc2)CC1` (stereo not shown) [Example 4-1, 3-Cyclopentyl-N-isoquinolin-1-yl-2-[4-(4-methyl-piperazine-1-sulfonyl)-phenyl]-propionamide], the EC50 was determined as 1100 nM.

Turning to `CCN(CC)S(=O)(=O)c1ccc(C(CC2CCCC2)C(=O)Nc2nc3c(s2)CN(C(=O)OC(C)(C)C)CC3)cc1` (stereo not shown) [Example 4-8, 2-[3-Cyclopentyl-2-(4-diethylsulfamoyl-phenyl)-propionylamino]-6,7-dihydro-4H-thiazolo[5,4-c]pyridine-5-carboxylic acid tert-butyl ester], the EC50 worked out at 95 nM.

As to `COc1ccc2nc(NC(=O)C(CC3CCCC3)c3ccc(S(=O)(=O)N4CCNCC4C(=O)O)cc3)sc2n1` (stereo not shown) [Example 4-94, 1-{4-[2-Cyclopentyl-1-(5-methoxy-thiazolo[5,4-b]pyridin-2-ylcarbamoyl)-ethyl]-benzenesulfonyl}-piperazine-2-carboxylic acid], the EC50 was determined as 9300 nM.

As to `COCCN(C)C(=O)c1ccc2nc(NC(=O)[C@H](CC3CCCC3)c3ccc(S(=O)(=O)N4CCN(C)CC4)cc3)sc2n1` [Example 4-52, 2-{(R)-3-Cyclopentyl-2-[4-(4-methyl-piperazine-1-sulfonyl)-phenyl]-propionylamino}-thiazolo[5,4-b]pyridine-5-carboxylic acid (2-methoxy-ethyl)-methyl-amide], the EC50 turned out to be 2100 nM.

Take `CN1CCN(S(=O)(=O)c2ccc(C(CC3CCCC3)C(=O)Nc3nc4ccc(Br)nc4s3)cc2)CC1` (stereo not shown) [Example 4-22, N-(5-Bromo-thiazolo[5,4-b]pyridin-2-yl)-3-cyclopentyl-2-[4-(4-methyl-piperazine-1-sulfonyl)-phenyl]-propionamide]: the EC50 stood at 390 nM.

As to `CCN(CC)S(=O)(=O)c1ccc(C(CC2CCCC2)C(=O)Nc2nccs2)cc1` (stereo not shown) [Example 4-15, 3-Cyclopentyl-2-(4-diethylsulfamoyl-phenyl)-N-thiazol-2-yl-propionamide], the EC50 was found to be 60 nM.
